How the values were obtained:
[1] = target: A-Raf kinase (SEQ. ID No: 1) (Homo sapiens (Human), UniProt P10398, Y301D/Y302D); assay: Biochemical Assay for A-Raf (1); details: Table J, assay version (1); read-out: ARAF (1) IC50
Outline: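 IC50 values were derived by four-parameter sigmoidal fitting of percent inhibition, calculated from reaction rates over the 4–5 h window. Absorbance at 340 nm was tracked for 6 h at 30 °C via coupled PK/LDH NADH depletion. Conditions: 1 mM ATP, 30.1 nM MEK substrate, 5.55 nM A-Raf (Y301D/Y302D), Tris pH 7.5, 1% DMSO.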

[2] = target: C-Raf kinase (SEQ. ID NO: 3) (Homo sapiens (Human), UniProt P04049, Y340D/Y341D); assay: Biochemical Assay for C-Raf (1); details: Table J, assay version (1); read-out: CRAF (1) IC50
Outline: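 IC50 values come from a four-parameter fit of percent inhibition, using the reaction rate over 4–5 h of a 6 h continuous 340 nm read at 30 °C. The enzyme mix was C-Raf 0.43 nM, MEK substrate 30.1 nM and ATP 1 mM, in a PK/LDH NADH-coupled format in Tris pH 7.5 with 1% DMSO.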

[3] = target: B-Raf (V600E) (SEQ. ID NO: 4) kinase (Homo sapiens (Human), UniProt P15056, V600E); assay: Biochemical Assay for B-Raf (V600E) (1); details: Table J, BRAF V600E, assay version (1); read-out: BRAF VE (1) IC50
Outline: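 Serially diluted compounds tested against 0.03 nM enzyme with 30.1 nM MEK substrate and 1 mM ATP (Tris pH 7.5, 15 mM MgCl2), ATP use coupled to NADH loss via PK/LDH. A340 monitored continuously 6 h, 30 °C; IC50 fitted (four-parameter) from the 3–4 h rate versus no-compound and known-inhibitor controls.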

Miapaca-2 cells = assay: MiaPaca-2 Cell Proliferation Assay (1); type: cell-based; details: Homo sapiens, MIA PaCa-2, single agent, read-out: MiaPaca2 (1) IC50
Outline: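 Resazurin was added after compound exposure and incubated 5-6 h, then fluorescence read at 540 nm excitation and 600 nm emission to give IC50.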

B-Raf (V600E) (SEQ. ID NO: 4) kinase, sequence (P15056 416-766 V600E): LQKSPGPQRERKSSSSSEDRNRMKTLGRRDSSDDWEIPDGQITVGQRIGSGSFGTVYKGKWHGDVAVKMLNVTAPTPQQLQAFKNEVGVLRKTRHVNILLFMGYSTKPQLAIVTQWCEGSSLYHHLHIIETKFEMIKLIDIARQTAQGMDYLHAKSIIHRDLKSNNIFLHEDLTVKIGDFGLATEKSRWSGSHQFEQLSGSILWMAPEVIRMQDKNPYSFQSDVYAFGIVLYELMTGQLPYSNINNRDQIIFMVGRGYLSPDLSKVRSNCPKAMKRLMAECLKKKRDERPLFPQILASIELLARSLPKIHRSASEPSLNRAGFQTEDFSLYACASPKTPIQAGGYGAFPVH
A-Raf kinase (SEQ. ID No: 1), sequence (P10398 other isoform, or with tags, fused parts or gaps Y301D (already in the parent)/Y302D (already in the parent)): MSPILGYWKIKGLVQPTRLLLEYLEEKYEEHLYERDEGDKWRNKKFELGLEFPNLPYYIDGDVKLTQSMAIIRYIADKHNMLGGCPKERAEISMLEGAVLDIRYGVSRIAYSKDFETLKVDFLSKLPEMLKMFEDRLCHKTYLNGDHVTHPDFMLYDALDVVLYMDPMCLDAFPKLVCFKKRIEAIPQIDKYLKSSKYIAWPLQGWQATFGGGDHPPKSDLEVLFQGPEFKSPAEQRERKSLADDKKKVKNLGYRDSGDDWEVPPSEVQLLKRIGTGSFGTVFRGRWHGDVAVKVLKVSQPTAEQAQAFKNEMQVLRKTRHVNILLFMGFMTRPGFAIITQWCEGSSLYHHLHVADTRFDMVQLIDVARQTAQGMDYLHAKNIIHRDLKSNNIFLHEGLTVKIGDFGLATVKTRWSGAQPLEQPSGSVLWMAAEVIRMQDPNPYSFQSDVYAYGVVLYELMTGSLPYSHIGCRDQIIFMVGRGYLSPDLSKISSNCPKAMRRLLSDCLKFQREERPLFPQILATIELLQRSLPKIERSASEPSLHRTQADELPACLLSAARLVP
C-Raf kinase (SEQ. ID NO: 3), sequence (P04049 307-648 Y340D/Y341D): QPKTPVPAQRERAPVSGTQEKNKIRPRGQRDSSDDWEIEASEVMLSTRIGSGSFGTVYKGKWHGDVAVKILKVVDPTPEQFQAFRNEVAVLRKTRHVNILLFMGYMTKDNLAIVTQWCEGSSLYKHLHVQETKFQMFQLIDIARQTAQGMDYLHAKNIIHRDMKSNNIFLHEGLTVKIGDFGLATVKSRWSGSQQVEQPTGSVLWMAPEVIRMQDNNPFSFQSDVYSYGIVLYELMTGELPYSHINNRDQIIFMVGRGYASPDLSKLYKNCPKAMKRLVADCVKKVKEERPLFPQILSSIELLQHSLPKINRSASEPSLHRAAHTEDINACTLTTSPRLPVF

SMILES	IC50 [1] [nM]	IC50 [2] [nM]	IC50 [3] [nM]	IC50 (Miapaca-2 cells) [nM]
CC(=O)Nc1cc(-c2cc(-c3cc(NC(=O)c4ccnc(C(F)(F)F)c4)ccc3C)cc(OCCO)n2)ccn1 [Example 1, N-(3-(2′-acetamido-6-(2-hydroxyethoxy)-[2,4′-bipyridin]-4-yl)-4-methylphenyl)-2-(trifluoromethyl)isonicotinamide]	1000 to 10000	≤ 100	≤ 100	100 to 500
CC(=O)Nc1cc(-c2cc(-c3cc(NC(=O)c4ccnc(C(F)(F)F)c4)c(F)cc3C)ccn2)ccn1 [Example 2]	500 to 1000	≤ 100	≤ 100	1000 to 10000
CC(=O)Nc1cc(-c2cc(-c3cc(NC(=O)c4cccc(C)c4)ccc3C)ccn2)ccn1 [Example 32]	500 to 1000	≤ 100	≤ 100	1000 to 10000
Cc1cc(F)c(NC(=O)c2ccnc(C(F)(F)F)c2)cc1-c1ccnc(-c2ccnc(NC=O)c2)c1 [Example 35]	1000 to 10000	≤ 100	≤ 100	1000 to 10000
CC(=O)Nc1cc(-c2cc(-c3cc(NC(=O)c4ccnc(C(F)(F)F)c4)cnc3C)ccn2)ccn1 [Example 36]	1000 to 10000	≤ 100	≤ 100	1000 to 10000
CC(=O)Nc1cc(-c2cc(-c3cc(NC(=O)c4cccc(C(F)(F)F)c4)cnc3C)ccn2)ccn1 [Example 37]	1000 to 10000	≤ 100	≤ 100	1000 to 10000
Cc1ccc(NC(=O)c2ccnc(C(F)(F)F)c2)cc1-c1ccnc(-c2ccnc(NC(=O)CC#N)c2)c1 [Example 39, N-(3-(2′-(2-cyanoacetamido)-[2,4′-bipyridin]-4-yl)-4-methylphenyl)-2-(trifluoromethyl)isonicotinamide]	1000 to 10000	≤ 100	≤ 100	1000 to 10000
CNC(=O)c1cc(-c2cc(-c3cc(NC(=O)c4ccnc(C)c4)ccc3C)ccn2)ccn1 [Example 40]	1000 to 10000	≤ 100	≤ 100	1000 to 10000
CC(=O)Nc1cc(-c2cc(-c3cc(NC(=O)c4ccnc(C(F)(F)F)c4)ccc3C)nc(N(C)C)n2)ccn1 [Example 41, N-(3-(6-(2-acetamidopyridin-4-yl)-2-(dimethylamino)pyrimidin-4-yl)-4-methylphenyl)-2-(trifluoromethyl)isonicotinamide]	1000 to 10000	≤ 100	≤ 100	1000 to 10000
CNC(=O)c1cc(-c2cc(-c3cc(NC(=O)c4ccnc(C(F)(F)F)c4)cnc3C)ccn2)ccn1 [Example 42]	1000 to 10000	≤ 100	≤ 100	1000 to 10000
Cc1ccc(NC(=O)c2ccnc(C(C)(C)C#N)c2)cc1-c1cncc(-c2ccnc3c2CC(=O)N3)n1 [Example 43]	1000 to 10000	≤ 100	≤ 100	1000 to 10000
Cc1ccc(NC(=O)c2ccnc(C(F)(F)F)c2)cc1-c1ccnc(-c2ccnc(NC=O)c2)c1 [Example 46]	1000 to 10000	≤ 100	≤ 100	1000 to 10000
CNC(=O)c1cc(-c2cncc(-c3cc(NC(=O)c4ccnc(C(F)(F)F)c4)ccc3C)n2)ccn1 [Example 47]	1000 to 10000	≤ 100	≤ 100	1000 to 10000
CNC(=O)c1cc(-c2cc(-c3cc(NC(=O)c4ccnc(C(F)F)c4)ccc3C)ccn2)ccn1 [Example 48]	1000 to 10000	≤ 100	≤ 100	1000 to 10000
Cc1cc(-c2cc(-c3cc(NC(=O)c4ccnc(C(C)(C)C#N)c4)ccc3C)ccn2)ccn1 [Example 49]	1000 to 10000	≤ 100	≤ 100	1000 to 10000
CNC(=O)c1cc(-c2cc(-c3cc(NC(=O)c4ccnc(C(C)(C)C#N)c4)ccc3C)ccn2)ccn1 [Example 50]	1000 to 10000	≤ 100	≤ 100	1000 to 10000

Source: patent publication US12319655B2, “RAF kinase inhibitors and methods of use thereof” (Deciphera Pharmaceuticals, LLC, priority 2021, dated 2025)
